The record followed here is patent publication US9725460B2, “Oridonin analogs, compositions, and methods related thereto” (THE BOARD OF REGENTS OF THE UNIVERSITY OF TEXAS SYSTEM, priority 2013, dated 2017).

Like-named read-outs stand apart in the source and are kept apart here.

Common to all, as to type: cell-based, human
For one experiment, the system named is MDA-MB-468. Nature of the experiment: MTT cancer cell proliferation assay, MDA-MB-468. The settings on record: Table 3, pyran-fused diterpenoids, MTT 48 h, mean ± SE of three experiments. The method, then: (§1) In Vitro Determination of Effects of Synthesized Diterpenoids on Cancer Cell Proliferation. Breast cancer cell lines MCF-7, MDA-MB-231, […] and MCF/ADR were seeded in 96-well plates at a density of 1×10^4 cells/well and treated with DMSO and 0.01, 0.1, 1, 5, 10, and 100 μM of individual compound for 48 h, and then 20 μL of 3-(4,5-dimethylthiazol-2-yl)-2,5-diphenyltetrazolium bromide (MTT) (5 mg/mL in PBS) was added to each well and further incubated for another 4 h. Then MTT solution was removed, and 150 μL of DMSO was added to each well. Absorbance of all wells was determined by measuring OD at 550 nm after a 10 min incubation on a 96-well GlowMaxate absorbance reader (Promega, Madison, Wis.). Each individual compound was tested in quadruplicate wells for each concentration.
(§2) The growth inhibitory effects of the newly generated pyran-fused diterpenoids were evaluated in four breast cancer cell lines MCF-7 (ER-positive), MDAMB-231 (ER-negative and triple-negative), MDA-MB-468 (ER-negative and triple-negative) as well as MCF-7/ADR (adriamycin-resistant) using MTT assays as described in the Experimental Section. The capability of these new molecules to inhibit the growth of cancer cells was summarized in Table 3 and compared with that of adriamycin and 1 spontaneously.

Another experiment concerns MDA-MB-231. Nature of the experiment: MTT cancer cell proliferation assay, MDA-MB-231. The settings on record: Table 3, pyran-fused diterpenoids, MTT 48 h, mean ± SE of three experiments, read-out: IC50 (μM) MDA-MB-231. The method, then: as §1
(§3) The growth inhibitory effects of the newly generated pyran-fused diterpenoids were evaluated in four breast cancer cell lines MCF-7 (ER-positive), MDAMB-231 (ER-negative and triple-negative), MDA-MB-468 (ER-negative and triple-negative) as well as MCF-7/ADR (adriamycin-resistant) using MTT assays as described in the Experimental Section.

In the next experiment the test system is MCF-7/ADR. In words: MTT growth inhibition, drug-resistant MCF-7/ADR. The settings on record: Table 3, adriamycin-resistant, MTT 48 h, mean ± SE of three experiments. As to the method:
as §1, §2

The test system of another experiment is MCF-7. Nature of the experiment: MTT cancer cell proliferation assay, MCF-7. The settings on record: Table 3, pyran-fused diterpenoids, MTT 48 h, mean ± SE of three experiments, read-out: IC50 (μM) MCF-7. The method, then: as §1, §3
[1] abbreviates: Homo sapiens, NCI/ADR-RES, 48 h.

Usually IC50 stands for the concentration needed to halve the response being measured. On to `C=C1C(=O)[C@@]23[C@@H]4OC(C)(C)O[C@@]25OC[C@]2(C6=C(CC[C@H](OCCCCO)O6)CC(C)(C)[C@H]2[C@@H]5O)[C@@H]3CC[C@@H]14` [CYD-8-67-1], for which the IC50 in the experiment on MDA-MB-468 (Homo sapiens, MDA-MB-468, 48 h) amounted to 2.65 ± 0.14 µM; with MDA-MB-231 (Homo sapiens, MDA-MB-231, 48 h), 3.18 ± 0.24 µM; in the experiment on MCF-7/ADR (setting [1]), 4.51 ± 1.54 µM; in the experiment on MCF-7 (Homo sapiens, MCF7, 48 h) it was 2.14 ± 1.11 µM.
Turning to `C=C1C(=O)[C@@]23[C@@H]4OC(C)(C)O[C@@]25OC[C@]2(C6=C(CC[C@@H](OCC)O6)CC(C)(C)[C@H]2[C@@H]5O)[C@@H]3CC[C@@H]14` [CYD-8-45-2], the half-inhibitory concentration (IC50) with MDA-MB-468 came to 0.52 ± 0.18 µM; in the experiment on MDA-MB-231, 0.54 ± 0.14 µM; with MCF-7/ADR it was 1.64 ± 0.72 µM; with MCF-7 it was 0.44 ± 0.27 µM.
Turning to `C=C1C(=O)[C@@]23[C@@H]4OC(C)(C)O[C@@]25OC[C@]2(C6=C(CC[C@@H](OCCCl)O6)CC(C)(C)[C@H]2[C@@H]5O)[C@@H]3CC[C@@H]14` [CYD-8-65-2], the IC50 in the experiment on MDA-MB-468 (Homo sapiens, MDA-MB-468, 48 h) was determined as 7.26 ± 0.23 µM; with MDA-MB-231 (Homo sapiens, MDA-MB-231, 48 h), 7.15 ± 1.27 µM; in the experiment with MCF-7/ADR (setting [1]), 8.74 ± 0.27 µM; in the experiment with MCF-7 (Homo sapiens, MCF7, 48 h), 6.76 ± 3.43 µM.
Turning to `C=C1C(=O)[C@@]23[C@@H]4OC(C)(C)O[C@@]25OC[C@]2(C6=C(CC[C@H](OCCCN=[N+]=[N-])O6)CC(C)(C)[C@H]2[C@@H]5O)[C@@H]3CC[C@@H]14` [CYD-8-87], the IC50 in the experiment on MDA-MB-468 (Homo sapiens, MDA-MB-468, 48 h) was 6.63 ± 0.77 µM; with MDA-MB-231 (Homo sapiens, MDA-MB-231, 48 h) it was 7.57 ± 0.44 µM; in the experiment on MCF-7/ADR (setting [1]), 8.6 ± 0.7 µM; in the experiment on MCF-7 (Homo sapiens, MCF7, 48 h), 7.79 ± 3.18 µM.
The corresponding values for `C=C1C(=O)[C@]23[C@H](O)[C@H]1CC[C@H]2[C@@]12CO[C@@]3(O)[C@@H](O)[C@@H]1C(C)(C)CC1=C2O[C@@H](OCC)CC1` [CYD-8-50] are 2.24 ± 0.68 µM, 3.32 ± 1.01 µM, 3.18 ± 0.89 µM and 1.9 ± 0.97 µM.
The corresponding values for `C=CCO[C@@H]1CCC2=C(O1)[C@@]13CO[C@@]4(OC(C)(C)O[C@@H]5[C@H]6CC[C@@H]1[C@]54C(=O)C6=C)[C@@H](O)[C@@H]3C(C)(C)C2` [CYD-8-66-2] are 4.37 ± 1.48 µM, 3.3 ± 0.23 µM, 3.19 ± 0.54 µM and 2.1 ± 0.98 µM.
The corresponding values for `C=C1C(=O)[C@@]23[C@@H]4OC(C)(C)OC25OC[C@]2(C6=C(CC[C@H](OCCCC)O6)CC(C)(C)[C@H]2[C@@H]5O)[C@@H]3CC[C@@H]14` [CYD-8-69-1] are 2.98 ± 0.67 µM, 2.23 ± 0.39 µM, 3.8 ± 1.15 µM and 2.41 ± 1.45 µM.
